Reference: PubChem BioAssay (NCI)
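Each compound was tested at five concentrations against cells in 96-well plates for 48 hours. TGI marks complete inhibition of growth.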

Key:
Assay in all cases: NCI tumour cell line growth inhibition, 48 h
MDA-N = system: MDA-N
CAKI-1 renal = system: CAKI-1 renal
SW-620 colon = system: SW-620 colon
NCI-H23 lung = system: NCI-H23 lung
SF-268 CNS = system: SF-268 CNS
SNB-75 CNS = system: SNB-75 CNS
DMS 273 small cell lung = system: DMS 273 small cell lung
SK-MEL-28 melanoma = system: SK-MEL-28 melanoma
RXF-631 renal = system: RXF-631 renal
UACC-62 melanoma = system: UACC-62 melanoma
HOP-18 NSCLC = system: HOP-18 NSCLC
HOP-62 NSCLC = system: HOP-62 NSCLC
MCF7 breast = system: MCF7 breast
RXF 393 renal = system: RXF 393 renal
HCT-116 colon = system: HCT-116 colon
HCC-2998 colon = system: HCC-2998 colon
NCI-H460 lung = system: NCI-H460 lung
UACC-257 melanoma = system: UACC-257 melanoma
SK-OV-3 ovarian = system: SK-OV-3 ovarian
OVCAR-4 ovarian = system: OVCAR-4 ovarian
LXFL 529 NSCLC = system: LXFL 529 NSCLC
HOP-92 NSCLC = system: HOP-92 NSCLC
LOX IMVI melanoma = system: LOX IMVI melanoma
NCI-H226 lung = system: NCI-H226 lung
A498 renal = system: A498 renal
DU-145 prostate = system: DU-145 prostate
M14 melanoma = system: M14 melanoma
EKVX NSCLC = system: EKVX NSCLC
SN12K1 renal = system: SN12K1 renal
HL-60(TB) leukemia = system: HL-60(TB) leukemia
COLO 205 colon = system: COLO 205 colon
P388 leukemia = system: P388 leukemia
786-0 renal = system: 786-0 renal
SN12C renal = system: SN12C renal
MDA-MB-435 = system: MDA-MB-435
OVCAR-8 ovarian = system: OVCAR-8 ovarian
CCRF-CEM leukemia = system: CCRF-CEM leukemia
PC-3 prostate = system: PC-3 prostate
DLD-1 colon = system: DLD-1 colon
K-562 leukemia = system: K-562 leukemia
MOLT-4 leukemia = system: MOLT-4 leukemia
XF 498 CNS = system: XF 498 CNS
SNB-78 CNS = system: SNB-78 CNS
DMS 114 small cell lung = system: DMS 114 small cell lung
OVCAR-3 ovarian = system: OVCAR-3 ovarian
BT-549 breast = system: BT-549 breast
RPMI-8226 leukemia = system: RPMI-8226 leukemia
SR leukemia = system: SR leukemia
SK-MEL-5 melanoma = system: SK-MEL-5 melanoma
SF-539 CNS = system: SF-539 CNS
KM12 colon = system: KM12 colon
NCI/ADR-RES ovarian = system: NCI/ADR-RES ovarian
UO-31 renal = system: UO-31 renal
NCI-H522 lung = system: NCI-H522 lung
SF-295 CNS = system: SF-295 CNS
T-47D breast = system: T-47D breast
U251 CNS = system: U251 CNS
OVCAR-5 ovarian = system: OVCAR-5 ovarian
SK-MEL-2 melanoma = system: SK-MEL-2 melanoma
HCT-15 colon = system: HCT-15 colon
M19-MEL melanoma = system: M19-MEL melanoma
MDA-MB-231 breast = system: MDA-MB-231 breast
A549 NSCLC = system: A549 NSCLC
HS 578T breast = system: HS 578T breast
KM20L2 colon = system: KM20L2 colon
HT29 colon = system: HT29 colon
P388/ADR leukemia = system: P388/ADR leukemia
SNB-19 CNS = system: SNB-19 CNS
MALME-3M melanoma = system: MALME-3M melanoma
IGROV1 ovarian = system: IGROV1 ovarian
TK-10 renal = system: TK-10 renal
ACHN renal = system: ACHN renal

Compound O=C(NC(c1ccccc1)C(O)C(=O)OCc1ccc2c(c1)C(=O)c1ccccc1C2=O)c1ccccc1 (configuration not stated) has a TGI (MDA-N) greater than 100 µM, a TGI (CAKI-1 renal) of 20.1 µM and a TGI (SW-620 colon) greater than 100 µM. It also gave a TGI (NCI-H23 lung) of 34.5 µM, a TGI (SF-268 CNS) of 70.1 µM and a TGI (SNB-75 CNS) of 24.6 µM. For the same compound, the TGI (DMS 273 small cell lung) was greater than 100 µM, the TGI (SK-MEL-28 melanoma) was greater than 95.6 µM and the TGI (RXF-631 renal) was greater than 100 µM. The TGI (UACC-62 melanoma) was 53 µM, the TGI (HOP-18 NSCLC) was 10.5 µM and the TGI (HOP-62 NSCLC) was 9.82 µM. For the same compound, the TGI (MCF7 breast) was greater than 100 µM, the TGI (RXF 393 renal) was 8.57 µM and the TGI (HCT-116 colon) was 39.1 µM. For the same compound, the TGI (HCC-2998 colon) was greater than 100 µM, the TGI (NCI-H460 lung) was 42.8 µM and the TGI (UACC-257 melanoma) was greater than 72 µM. The TGI (SK-OV-3 ovarian) was 15.3 µM, the TGI (OVCAR-4 ovarian) was 4.99 µM and the TGI (LXFL 529 NSCLC) was greater than 100 µM. The TGI (HOP-92 NSCLC) was 7.91 µM, the TGI (LOX IMVI melanoma) was greater than 83.8 µM and the TGI (NCI-H226 lung) was 18.7 µM. It also gave a TGI (A498 renal) of 15.7 µM, a TGI (DU-145 prostate) greater than 100 µM and a TGI (M14 melanoma) greater than 80.5 µM. It also gave a TGI (EKVX NSCLC) greater than 83.1 µM, a TGI (SN12K1 renal) of 3.27 µM and a TGI (HL-60(TB) leukemia) greater than 100 µM. The TGI (COLO 205 colon) was greater than 100 µM, the TGI (P388 leukemia) was greater than 100 µM and the TGI (786-0 renal) was 6.4 µM. It also gave a TGI (SN12C renal) of 47.9 µM, a TGI (MDA-MB-435) greater than 100 µM and a TGI (OVCAR-8 ovarian) of 41 µM. For the same compound, the TGI (CCRF-CEM leukemia) was greater than 100 µM, the TGI (PC-3 prostate) was 42.1 µM and the TGI (DLD-1 colon) was greater than 100 µM. It also gave a TGI (K-562 leukemia) greater than 100 µM, a TGI (MOLT-4 leukemia) greater than 100 µM and a TGI (XF 498 CNS) of 35.9 µM. It also gave a TGI (SNB-78 CNS) greater than 92.4 µM, a TGI (DMS 114 small cell lung) greater than 100 µM and a TGI (OVCAR-3 ovarian) of 34.6 µM. The TGI (BT-549 breast) was greater than 100 µM, the TGI (RPMI-8226 leukemia) was greater than 68.1 µM and the TGI (SR leukemia) was greater than 88.3 µM. The TGI (SK-MEL-5 melanoma) was 40.3 µM, the TGI (SF-539 CNS) was 20.6 µM and the TGI (KM12 colon) was greater than 97.4 µM. It also gave a TGI (NCI/ADR-RES ovarian) of 33.9 µM, a TGI (UO-31 renal) of 10.1 µM and a TGI (NCI-H522 lung) of 63.6 µM. For the same compound, the TGI (SF-295 CNS) was 69.4 µM, the TGI (T-47D breast) was 34.9 µM and the TGI (U251 CNS) was 18.3 µM. The TGI (OVCAR-5 ovarian) was 79.9 µM, the TGI (SK-MEL-2 melanoma) was 86.9 µM and the TGI (HCT-15 colon) was greater than 100 µM. The TGI (M19-MEL melanoma) was greater than 100 µM, the TGI (MDA-MB-231 breast) was 30.6 µM and the TGI (A549 NSCLC) was 54 µM. It also gave a TGI (HS 578T breast) greater than 100 µM, a TGI (KM20L2 colon) greater than 100 µM and a TGI (HT29 colon) greater than 85.2 µM. For the same compound, the TGI (P388/ADR leukemia) was greater than 100 µM, the TGI (SNB-19 CNS) was 18.3 µM and the TGI (MALME-3M melanoma) was 37.9 µM. The TGI (IGROV1 ovarian) was 48.5 µM, the TGI (TK-10 renal) was 53.2 µM and the TGI (ACHN renal) was 43.7 µM.
